Laboratory results from patent publication EP0093484A2, “Antibacterial monic acid derivatives” (BEECHAM GROUP PLC, priority 1982, dated 1983).
In brackets after ≈: the same amount, converted by molar mass.

Experiments:
Strep. faecalis I = test: Human bacteria, MIC by serial dilution in nutrient agar; format: cell-based; details: Enterococcus faecalis, nutrient agar with 5% chocolated horse blood, 18 hours at 37°C, read-out: MIC
M. bovis NCTC 10131 = test: microbe, parasite or virus in culture; format: cell-based; details: NCTC10131, 144 h
M. suipneumoniae JF 435 = test: Anti-mycoplasmal activity, MIC in Friis broth agarose; format: cell-based; details: Mesomycoplasma hyopneumoniae, JF435, 144 h, Friis broth solidified with 0.9% agarose, 6 days incubation at 37°C, read-out: MIC
Staph. aureus Oxford = test: Veterinary bacteria, MIC by two fold serial dilution in agar; details: Staphylococcus aureus, 18 h
Experimental: (§1) The activity of the compounds of the Examples against various organisms important in veterinary infections was determined using two fold serial dilutions in Diagnostic Sensitivity Test Agar inoculated with 10^4 organisms.

[1] = test system: M. hyosynoviae ATCC 25591; test: Anti-mycoplasmal activity, MIC in Friis broth agarose; format: cell-based; details: 144 h, Friis broth solidified with 0.9% agarose, 6 days incubation at 37°C, read-out: MIC
[2] = test system: Haemophilus influenzae Wy21; test: Human bacteria, MIC by serial dilution in nutrient agar; format: cell-based; details: nutrient agar with 5% chocolated horse blood, 18 hours at 37°C, read-out: MIC
Strep. uberis SPU1 = test: Veterinary bacteria, MIC by two fold serial dilution in agar; details: Streptococcus uberis, SPU1, 18 h
Experimental: as §1

[3] = test system: M. bovigenitalium ATCC 14173; test: Anti-mycoplasmal activity, MIC in Friis broth agarose; format: cell-based; details: 144 h, Friis broth solidified with 0.9% agarose, 6 days incubation at 37°C, read-out: MIC
[4] = test system: Staph. aureus 152 (pen. sens.); test: Veterinary bacteria, MIC by two fold serial dilution in agar; details: Staphylococcus aureus, 18 h
Experimental: as §1

[5] = test system: Pasteurella multocida 1633; test: Human bacteria, MIC by serial dilution in nutrient agar; format: cell-based; details: nutrient agar with 5% chocolated horse blood, 18 hours at 37°C, read-out: MIC
[6] = test system: Strep. suis (group D) SPS11; test: Veterinary bacteria, MIC by two fold serial dilution in agar; details: Streptococcus suis, 18 h
Experimental: as §1

M. suipneumoniae UCD 1 = test: Anti-mycoplasmal activity, MIC in Friis broth agarose; format: cell-based; details: Mesomycoplasma hyopneumoniae, UCD1, 144 h, Friis broth solidified with 0.9% agarose, 6 days incubation at 37°C, read-out: MIC
Strep. spp. 64/848-C = test: Human bacteria, MIC by serial dilution in nutrient agar; format: cell-based; details: nutrient agar with 5% chocolated horse blood, 18 hours at 37°C, read-out: MIC
Staph. aureus Russell = test: as above; format: cell-based; details: Staphylococcus aureus, nutrient agar with 5% chocolated horse blood, 18 hours at 37°C, read-out: MIC
Past. multocida PA1 = test: Veterinary bacteria, MIC by two fold serial dilution in agar; details: Pasteurella multocida, PA1, 18 h
Experimental: as §1

E. coli ESS = test: Human bacteria, MIC by serial dilution in nutrient agar; format: cell-based; details: Escherichia coli, nutrient agar with 5% chocolated horse blood, 18 hours at 37°C, read-out: MIC
[7] = test system: Corynebacterium xerosis 9755; test: as above; format: cell-based; details: nutrient agar with 5% chocolated horse blood, 18 hours at 37°C, read-out: MIC
[8] = test system: M. suipneumoniae NCTC 10110; test: Anti-mycoplasmal activity, MIC in Friis broth agarose; format: cell-based; details: Mesomycoplasma hyopneumoniae, NCTC10110, 144 h, Friis broth solidified with 0.9% agarose, 6 days incubation at 37°C, read-out: MIC
[9] = test system: M. suipneumoniae ATCC 25095; test: as above; format: cell-based; details: Mesomycoplasma hyopneumoniae, ATCC25095, 144 h, Friis broth solidified with 0.9% agarose, 6 days incubation at 37°C, read-out: MIC
M. pneumoniae ATCC 15492 = test: as above; format: cell-based; details: Mycoplasmoides pneumoniae, ATCC15492, 144 h, Friis broth solidified with 0.9% agarose, 6 days incubation at 37°C, read-out: MIC
K. aerogenes A = test: Human bacteria, MIC by serial dilution in nutrient agar; format: cell-based; details: Klebsiella aerogenes, nutrient agar with 5% chocolated horse blood, 18 hours at 37°C, read-out: MIC
M. suipneumoniae HK(2) = test: Anti-mycoplasmal activity, MIC in Friis broth agarose; format: cell-based; details: Mesomycoplasma hyopneumoniae, 144 h, Friis broth solidified with 0.9% agarose, 6 days incubation at 37°C, read-out: MIC
E. coli NCTC 10418 [10] = test: Human bacteria, MIC by serial dilution in nutrient agar; format: cell-based; details: Escherichia coli, NCTC10418; E. coli NCTC 10418 (human panel); nutrient agar with 5% chocolated horse blood; 18 hours at 37°C; read-out: MIC
Strep. agalactiae SPA1 = test: Veterinary bacteria, MIC by two fold serial dilution in agar; details: Streptococcus agalactiae, SPA1, 18 h
Experimental: as §1

M. suipneumoniae MS16 = test: Anti-mycoplasmal activity, MIC in Friis broth agarose; format: cell-based; details: Mesomycoplasma hyopneumoniae, 144 h, Friis broth solidified with 0.9% agarose, 6 days incubation at 37°C, read-out: MIC
Staph. aureus W2827 = test: Human bacteria, MIC by serial dilution in nutrient agar; format: cell-based; details: Staphylococcus aureus, nutrient agar with 5% chocolated horse blood, 18 hours at 37°C, read-out: MIC
[11] = test system: Strep. pyogenes R80/421-A; test: as above; format: cell-based; details: Streptococcus pyogenes, nutrient agar with 5% chocolated horse blood, 18 hours at 37°C, read-out: MIC
M. suipneumoniae Str. 11 = test: Anti-mycoplasmal activity, MIC in Friis broth agarose; format: cell-based; details: Mesomycoplasma hyopneumoniae, 144 h, Friis broth solidified with 0.9% agarose, 6 days incubation at 37°C, read-out: MIC
Bord. bronchiseptica BO9 = test: Veterinary bacteria, MIC by two fold serial dilution in agar; details: Bordetella bronchiseptica, BO9, 18 h
Experimental: as §1

[12] = test system: M. suipneumoniae J2206/183b; test: Anti-mycoplasmal activity, MIC in Friis broth agarose; format: cell-based; details: Mesomycoplasma hyopneumoniae, 144 h, Friis broth solidified with 0.9% agarose, 6 days incubation at 37°C, read-out: MIC
M. suipneumoniae LABER = test: as above; format: cell-based; details: Mesomycoplasma hyopneumoniae, 144 h, Friis broth solidified with 0.9% agarose, 6 days incubation at 37°C, read-out: MIC
E. coli NCTC 10418 [13] = test: Veterinary bacteria, MIC by two fold serial dilution in agar; details: Escherichia coli, NCTC10418, 18 h
Experimental: as §1

Bacillus subtilis 6633 = test: Human bacteria, MIC by serial dilution in nutrient agar; format: cell-based; details: nutrient agar with 5% chocolated horse blood, 18 hours at 37°C, read-out: MIC
M. hyorhinis ATCC 23234 = test: Anti-mycoplasmal activity, MIC in Friis broth agarose; format: cell-based; details: Mesomycoplasma hyorhinis, ATCC23234, 144 h, Friis broth solidified with 0.9% agarose, 6 days incubation at 37°C, read-out: MIC
Strep. dysgalactiae SPD1 = test: Veterinary bacteria, MIC by two fold serial dilution in agar; details: Streptococcus dysgalactiae, SPD1, 18 h
Experimental: as §1

P. mirabilis 889 = test: Human bacteria, MIC by serial dilution in nutrient agar; format: cell-based; details: Proteus mirabilis, nutrient agar with 5% chocolated horse blood, 18 hours at 37°C, read-out: MIC
[14] = test system: Corynebacterium pyogenes CY1; test: Veterinary bacteria, MIC by two fold serial dilution in agar; details: CY1, 18 h
Experimental: as §1

Past. multocida PA2 = test: as above; details: Pasteurella multocida, PA2, 18 h
Experimental: as §1

[15] = test system: Haemophilus influenzae Q1; test: Human bacteria, MIC by serial dilution in nutrient agar; format: cell-based; details: nutrient agar with 5% chocolated horse blood, 18 hours at 37°C, read-out: MIC
Sarcina lutea 8340 = test: as above; format: cell-based; details: Micrococcus luteus, nutrient agar with 5% chocolated horse blood, 18 hours at 37°C, read-out: MIC

SMILES | MIC (Strep. faecalis I) [µg/mL] | MIC (M. bovis NCTC 10131) [µg/mL] | MIC (M. suipneumoniae JF 435) [µg/mL] | MIC (Staph. aureus Oxford) [µg/mL] | MIC [1] [µg/mL] | MIC [2] [µg/mL] | MIC (Strep. uberis SPU1) [µg/mL] | MIC [3] [µg/mL] | MIC [4] [µg/mL] | MIC [5] [µg/mL] | MIC [6] [µg/mL] | MIC (M. suipneumoniae UCD 1) [µg/mL] | MIC (Strep. spp. 64/848-C) [µg/mL] | MIC (Staph. aureus Russell) [µg/mL] | MIC (Past. multocida PA1) [µg/mL] | MIC (E. coli ESS) [µg/mL] | MIC [7] [µg/mL] | MIC [8] [µg/mL] | MIC [9] [µg/mL] | MIC (M. pneumoniae ATCC 15492) [µg/mL] | further results
CC(=CC(=O)OC(C)c1ccc(S(C)(=O)=O)cc1)CC1OCC(CC2OC2C(C)C(C)O)C(O)C1O (stereo not drawn) [Example 9, 1-(p-Methylsulfonylphenyl)ethyl monate A] | > 128 | < 0.01 | 1 (≈ 1.9 µM) | 10 (≈ 19 µM) | 0.25 (≈ 0.475 µM) | 0.5 (≈ 0.949 µM) | 0.312 (≈ 0.592 µM) | 0.05 (≈ 0.0949 µM) | 5 (≈ 9.49 µM) | 8 (≈ 15.2 µM) | 40 (≈ 76 µM) | 1 (≈ 1.9 µM) | 4 (≈ 7.6 µM) | 16 (≈ 30.4 µM) | 5 (≈ 9.49 µM) | 4 (≈ 7.6 µM) | > 128 | 1 (≈ 1.9 µM) | 0.5 (≈ 0.949 µM) | 0.5 (≈ 0.949 µM) | MIC (K. aerogenes A): > 128 µg/mL; MIC (M. suipneumoniae HK(2)): 1 µg/mL (≈ 1.9 µM); MIC (E. coli NCTC 10418 [10]): > 128 µg/mL; MIC (Strep. agalactiae SPA1): 80 µg/mL (≈ 152 µM); MIC (M. suipneumoniae MS16): 0.5 µg/mL (≈ 0.949 µM); MIC (Staph. aureus W2827): 16 µg/mL (≈ 30.4 µM); MIC [11]: 1 µg/mL (≈ 1.9 µM); MIC (M. suipneumoniae Str. 11): 0.5 µg/mL (≈ 0.949 µM); MIC (Bord. bronchiseptica BO9): 80 µg/mL (≈ 152 µM); MIC [12]: 1 µg/mL (≈ 1.9 µM); MIC (M. suipneumoniae LABER): 0.5 µg/mL (≈ 0.949 µM); MIC (E. coli NCTC 10418 [13]): > 80 µg/mL; MIC (Bacillus subtilis 6633): 1 µg/mL (≈ 1.9 µM); MIC (M. hyorhinis ATCC 23234): 0.5 µg/mL (≈ 0.949 µM); MIC (Strep. dysgalactiae SPD1): 0.625 µg/mL (≈ 1.19 µM); MIC (P. mirabilis 889): > 128 µg/mL; MIC [14]: > 80 µg/mL; MIC (Past. multocida PA2): 2.5 µg/mL (≈ 4.75 µM)
CC(=CC(=O)OCc1ccc(S(C)(=O)=O)cc1)CC1OCC(CC2OC2C(C)C(C)O)C(O)C1O (stereo not drawn) [Example 3, p-Methylsulphonylbenzyl monate A] | 50 (≈ 97.5 µM) | < 0.01 | 0.25 (≈ 0.488 µM) | 1.25 (≈ 2.44 µM) | 0.025 (≈ 0.0488 µM) | 0.1 (≈ 0.195 µM) | 0.312 (≈ 0.609 µM) | ≤ 0.01 | 1.25 (≈ 2.44 µM) | 0.25 (≈ 0.488 µM) | 2.5 (≈ 4.88 µM) | 0.25 (≈ 0.488 µM) | 0.5 (≈ 0.975 µM) | 2.5 (≈ 4.88 µM) | 0.025 (≈ 0.0488 µM) | 0.5 (≈ 0.975 µM) | > 100 | 0.25 (≈ 0.488 µM) | 0.1 (≈ 0.195 µM) | 0.25 (≈ 0.488 µM) | MIC (K. aerogenes A): > 100 µg/mL; MIC (M. suipneumoniae HK(2)): 0.25 µg/mL (≈ 0.488 µM); MIC (E. coli NCTC 10418 [10]): 100 µg/mL (≈ 195 µM); MIC (Strep. agalactiae SPA1): 0.625 µg/mL (≈ 1.22 µM); MIC (M. suipneumoniae MS16): 0.1 µg/mL (≈ 0.195 µM); MIC (Staph. aureus W2827): 2.5 µg/mL (≈ 4.88 µM); MIC [11]: 0.25 µg/mL (≈ 0.488 µM); MIC [15]: 0.05 µg/mL (≈ 0.0975 µM); MIC (M. suipneumoniae Str. 11): 0.1 µg/mL (≈ 0.195 µM); MIC (Bord. bronchiseptica BO9): 2.5 µg/mL (≈ 4.88 µM); MIC [12]: 0.25 µg/mL (≈ 0.488 µM); MIC (M. suipneumoniae LABER): 0.1 µg/mL (≈ 0.195 µM); MIC (Sarcina lutea 8340): > 100 µg/mL; MIC (E. coli NCTC 10418 [13]): 80 µg/mL (≈ 156 µM); MIC (Bacillus subtilis 6633): 0.5 µg/mL (≈ 0.975 µM); MIC (M. hyorhinis ATCC 23234): 0.1 µg/mL (≈ 0.195 µM); MIC (Strep. dysgalactiae SPD1): 0.156 µg/mL (≈ 0.304 µM); MIC (P. mirabilis 889): 50 µg/mL (≈ 97.5 µM); MIC [14]: > 80 µg/mL; MIC (Past. multocida PA2): 0.156 µg/mL (≈ 0.304 µM)
